Test results from ChEMBL document CHEMBL1156829 (Proc Natl Acad Sci U S A, 2008).

Legend:
[1] = system: Plasmodium falciparum; experiment: NOVARTIS: Inhibition of Plasmodium falciparum W2 (drug-resistant) proliferation in erythrocyte-based infection assay; assay type: functional, organism-based; conditions: Plasmodium falciparum, W2; read-out: EC50
[2] = system: Plasmodium falciparum; experiment: NOVARTIS: Inhibition of Plasmodium falciparum 3D7 (drug-susceptible) proliferation in erythrocyte-based infection assay; assay type: functional, organism-based; conditions: Plasmodium falciparum, 3D7
[3] = NOVARTIS: Cytotoxicity against human hepatocellular carcinoma cell line (Huh7); assay type: toxicity, cell-based, Huh-7; conditions: Huh7 cells (hepatocellular carcinoma cell line)

CN(C)CCCNc1ncc(C(=O)NCc2ccccc2)c(NCCc2ccccc2)n1
EC50 [1]: > 1250 nM
EC50 [2]: 817 nM
CC50 [3]: > 10000 nM

c1ccc(-c2ccccc2OCCNCCN2CCOCC2)cc1
EC50 [1]: 2700 nM
EC50 [2]: 10100 nM
CC50 [3]: 46800 nM

Cc1cccc(N2CCN(c3nc4ccccc4c4nnc(C)n34)CC2)c1C
EC50 [1]: 943 nM
EC50 [2]: 4400 nM
CC50 [3]: > 100000 nM

Cc1sc2nc(C3CC3)n(C3CCN(C(=O)C4CC=CCC4)CC3)c(=O)c2c1C (stereo not given)
EC50 [1]: > 560 nM
EC50 [2]: > 1250 nM
CC50 [3]: > 10000 nM

COc1cccc(-c2ccc(O)c(CNC(C)c3cccc4ccccc34)c2)n1 (stereo not given)
EC50 [1]: 48.4 nM
EC50 [2]: 285 nM
CC50 [3]: 61200 nM

Cc1ccc(-c2cc3c(nn2)-c2ccccc2C3=O)cc1
EC50 [1]: 799 nM
EC50 [2]: 2000 nM
CC50 [3]: 83200 nM

COC(=O)C1=C(C)NC(=Cc2cc(C)n(-c3ccccc3C(F)(F)F)c2C)C1=O
EC50 [1]: 71 nM
EC50 [2]: 21.8 nM
CC50 [3]: > 100000 nM

CCCN1CCN(CCCNC(=O)c2ccc3c(c2)sc2nc(-c4ccc(OC)cc4)cn23)CC1
EC50 [1]: 4380 nM
EC50 [2]: 2440 nM
CC50 [3]: > 100000 nM

CCOCCCN(C(=O)C(F)(F)F)C(C(=O)NC1CCCCC1)c1ccncc1 (stereo not given)
EC50 [1]: > 1620 nM
EC50 [2]: 1870 nM
CC50 [3]: > 10000 nM

N=c1n(Cc2ccccc2)c2ccccc2n1CC(O)c1ccc(Cl)cc1 (stereo not given)
EC50 [1]: 50.6 nM
EC50 [2]: 257 nM
CC50 [3]: 11100 nM

Cc1cc(Nc2ccc(OCc3ccccc3)cc2)nc2cc(O)ccc12
EC50 [1]: 11.9 nM
EC50 [2]: 73.6 nM
CC50 [3]: 17200 nM

CCCSc1nc(N)c(NC(=O)c2ccco2)c(=O)[nH]1
EC50 [1]: > 1020 nM
EC50 [2]: > 361 nM
CC50 [3]: > 10000 nM

CC[C@H]1CN2CC[C@H]1C[C@H]2[C@H](O)c1ccnc2ccccc12
EC50 [1]: 696 nM
EC50 [2]: 183 nM
CC50 [3]: > 7910 nM

COc1ccccc1NC1=CC(=NS(=O)(=O)c2ccc(F)cc2)c2ccccc2C1=O
EC50 [1]: 431 nM
EC50 [2]: 375 nM
CC50 [3]: 20600 nM

COc1cccc(CN2CCC(O)(c3ccc4oc(C(=O)Nc5ccc(Cl)cc5)cc4c3)CC2)c1
EC50 [1]: 4060 nM
EC50 [2]: 2160 nM
CC50 [3]: 24700 nM

COc1cc(NC(=O)/C=C/c2ccccc2Cl)cc(OC)c1OC
EC50 [1]: 1060 nM
EC50 [2]: 862 nM
CC50 [3]: > 10000 nM

O=C(NC(CN1CCCC1)c1ccccc1)C1CCCCN1S(=O)(=O)c1ccc(Cl)cc1 (stereo not given)
EC50 [1]: 514 nM
EC50 [2]: 189 nM
CC50 [3]: 18600 nM

N#Cc1cn(-c2ccc(Cl)cc2)c(=O)n(Cc2c(Cl)cccc2Cl)c1=O
EC50 [1]: > 1250 nM
EC50 [2]: 816 nM
CC50 [3]: > 10000 nM

CN1CCN(c2ccc(Nc3ccnc4ccccc34)cc2)CC1
EC50 [1]: 237 nM
EC50 [2]: 220 nM
CC50 [3]: > 10000 nM

COC(=O)C1=C(C)NC(=Cc2cc(C)n(-c3cc(Cl)ccc3Cl)c2C)C1=O
EC50 [1]: 3680 nM
EC50 [2]: 711 nM
CC50 [3]: > 100000 nM

O=C(O)c1ccc2c(c1)N=CN(C1CCCCC1)C2
EC50 [1]: 98.3 nM
EC50 [2]: 268 nM
CC50 [3]: > 10000 nM

CCOc1cc(S(=O)(=O)N2CCCC3(CCCCC3)C2)c(OCC)cc1-n1cnnn1
EC50 [1]: > 563 nM
EC50 [2]: > 1250 nM
CC50 [3]: > 10000 nM

CCc1nc2nc(C)cc(NCCc3cccc(C)c3)n2n1
EC50 [1]: 453 nM
EC50 [2]: 334 nM
CC50 [3]: > 100000 nM

COc1cccc(NC(=O)c2ccc(NCCCC3CCCCCC3)c([N+](=O)[O-])c2)c1
EC50 [1]: 391 nM
EC50 [2]: 226 nM
CC50 [3]: 28800 nM

CC(C)(C)OC(=O)NCC(=O)Oc1cc2oc(=O)cc(-c3ccccc3)c2cc1Cl
EC50 [1]: > 755 nM
EC50 [2]: > 1250 nM
CC50 [3]: > 10000 nM

COc1cc(C(=O)NC2CC2)ccc1OC1CCN(CC(c2ccccc2)c2ccccc2)CC1
EC50 [1]: 18.5 nM
EC50 [2]: 44.4 nM
CC50 [3]: 23500 nM

CC(=NNC(=S)NN)c1ccccn1
EC50 [1]: 386 nM
EC50 [2]: 1370 nM
CC50 [3]: > 10000 nM

CC(C)N(CC(=O)Nc1cc(C(C)(C)C)nn1-c1ccc(Cl)cc1)C(=O)c1cccc2ccccc12
EC50 [1]: > 1240 nM
EC50 [2]: 1210 nM
CC50 [3]: > 10000 nM

CCCCCCN(C(=O)c1cccc([N+](=O)[O-])c1)C(CC)c1nc2ccccc2c(=O)n1-c1ccccc1OC (stereo not given)
EC50 [1]: 355 nM
EC50 [2]: 983 nM
CC50 [3]: > 6450 nM

Cc1ccc(C(C(=O)NC2CCCCC2)N(C(=O)c2ccc(-c3ccccc3)[nH]2)c2ccc(C3CCCCC3)cc2)o1 (stereo not given)
EC50 [1]: 1470 nM
EC50 [2]: 1160 nM
CC50 [3]: > 100000 nM

CC[n+]1c(SC)ccc2cc(OC)ccc21
EC50 [1]: 186 nM
EC50 [2]: 92.4 nM
CC50 [3]: > 100000 nM

COc1ccc(C(=O)ON=C(N)Cc2ccc(Cl)cc2Cl)cc1[N+](=O)[O-]
EC50 [1]: 675 nM
EC50 [2]: 4980 nM
CC50 [3]: > 100000 nM

CC(C)(C)c1nn(-c2ccc(Cl)cc2)c2[nH]c(=O)c(CNCc3ccccc3)cc12
EC50 [1]: 539 nM
EC50 [2]: 731 nM
CC50 [3]: > 100000 nM

CCCCCCOc1ccc(NC(=O)c2ccco2)cc1
EC50 [1]: 1200 nM
EC50 [2]: 1390 nM
CC50 [3]: > 10000 nM

CCCCC(CC)C(=O)N1CCN(C(CC)c2nc3ccccc3c(=O)n2C)CC1 (stereo not given)
EC50 [1]: 294 nM
EC50 [2]: 374 nM
CC50 [3]: > 100000 nM

CC1(C)N=C(N)N=C(N)N1c1ccc(F)cc1
EC50 [1]: 1860 nM
EC50 [2]: 21.8 nM
CC50 [3]: 51000 nM

CCOC(=O)C1=C(C)NC2=C(C(=O)CC(c3ccc(OC)cc3)C2)C1c1ccccc1F (stereo not given)
EC50 [1]: 27.1 nM
EC50 [2]: 74.1 nM
CC50 [3]: > 100000 nM

Cc1ccc(C2CC3=Nc4ccccc4N(C(=O)C(F)(F)F)C(c4ccc(OCc5ccccc5)cc4)C3=C(O)C2)cc1 (stereo not given)
EC50 [1]: 1560 nM
EC50 [2]: 1660 nM
CC50 [3]: > 100000 nM

Oc1ccccc1CN1CCN(C(c2ccccc2)c2ccccc2)CC1
EC50 [1]: 166 nM
EC50 [2]: 744 nM
CC50 [3]: 8920 nM

COc1ccc(CNC(=O)C(Cc2c[nH]c3ccccc23)N2CCS(=O)(=O)CC2)cc1 (stereo not given)
EC50 [1]: 784 nM
EC50 [2]: 851 nM
CC50 [3]: 8040 nM

N#CC(C#N)C(C(Sc1ccc([N+](=O)[O-])cc1)=C(O)c1ccccc1)c1cccs1 (stereo not given)
EC50 [1]: 661 nM
EC50 [2]: 1350 nM
CC50 [3]: 17700 nM

CCCCOc1ccc(-c2nnc(-c3ccc(C)cc3)n2-c2ccccc2)cc1
EC50 [1]: > 777 nM
EC50 [2]: > 1200 nM
CC50 [3]: > 10000 nM

C(=NNc1nc2ccccc2[nH]1)c1cccc(Oc2ccccc2)c1
EC50 [1]: 962 nM
EC50 [2]: 302 nM
CC50 [3]: > 100000 nM

COc1cc(NC(C)CCCN(Cc2ccc(N(C)C)cc2)C(=O)C(Cl)Cl)c2ncccc2c1 (stereo not given)
EC50 [1]: 66.6 nM
EC50 [2]: 948 nM
CC50 [3]: > 6790 nM

COc1cc(C2c3[nH]c4ccccc4c3C[C@@H]3C(=O)N(CCc4ccccc4)CC(=O)N23)cc(OC)c1OC (stereo not given in full)
EC50 [1]: 161 nM
EC50 [2]: 497 nM
CC50 [3]: > 10800 nM

COc1cccc2c1OCC(CN1CCC(C(=O)Nc3ccc(-n4cccn4)cc3)CC1)=C2
EC50 [1]: > 1360 nM
EC50 [2]: 817 nM
CC50 [3]: > 100000 nM

Cc1cccc(N2C(N)=NC(N)=NC2(C)C)c1
EC50 [1]: 52.8 nM
EC50 [2]: 20.2 nM
CC50 [3]: 2980 nM

COc1ccc(/C=C/C(=O)Nc2ccncc2)cc1OC
EC50 [1]: 828 nM
EC50 [2]: 593 nM
CC50 [3]: > 10000 nM

CC(C)(C)NC(=O)C(C1CC1)N1C(=O)c2cc(O)ccc2NC(=O)[C@@H]1CCCCN (stereo not given in full)
EC50 [1]: 139 nM
EC50 [2]: > 1250 nM
CC50 [3]: > 10000 nM

CC(C)CNC(=O)c1cnc(NCCCN2CCCCC2C)nc1NCCc1ccccc1 (stereo not given)
EC50 [1]: 1570 nM
EC50 [2]: 374 nM
CC50 [3]: > 10000 nM
